The results in this text go back to the METLIN SMRT retention time set (Domingo-Almenara et al. 2019).

Molecules are shown by their SMILES.

The data set can be described thus: gradient 5% acetonitrile 3 min, to 50% in 2 min, to 85% in 15 min, held 3 min, 100 µL/min. As to conditions: column: Zorbax Extend-C18 2.1 x 50 mm; eluents: water / acetonitrile, 0.1% formic acid. Put shortly:
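Retention times come from adduct peaks that were picked computationally and then checked by hand. The standards, pure and pooled in mixtures of ~100 molecules, were run on a Zorbax Extend-C18 column (2.1 × 50 mm, 1.8 μm) at 100 μL/min with water and acetonitrile, each with 0.1% formic acid. Detection was by quadrupole time-of-flight mass spectrometry in positive and negative ionization mode, with a dead volume of 40 μL and a dwell volume of 900 μL.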
`Cc1cc(S(=O)(=O)N2CCc3nn(C)c(=O)n3CC2)ccc1Cl` registered an RP-LC retention time of 744 s. Turning to `Cc1cccc(NC(=O)c2c(O)c3cccnc3n(-c3ccccc3)c2=O)c1C`, the RP-LC retention time stood at 1300 s. Then `CC(NC(=O)c1cn(C)c2ncccc12)c1cccnc1` (stereo unspecified), with 555 s; and `Cc1cc(C(=O)N2CCOCC2)c2cc(Cl)ccc2n1`, with 640 s; and `COc1cc(-c2nnc(-c3cccc(S(=O)(=O)N(C)C)c3)o2)cc(OC)c1OC`, with 873 s. With `Cc1ccc(C)c(Sc2ccc(N3CCC(C(=O)NCCC4=CCCCC4)CC3)nn2)c1`, the RP-LC retention time turned out to be 1010 s.

As to `Cc1cc(C(=O)NC2CCCC2)nc2cc(-c3cccs3)nn12`, the RP-LC retention time stood at 655 s.

`O=C(NCc1ccc2c(c1)OCO2)C(=O)Nc1ccon1` came in with an RP-LC retention time of 655 s. On to `O=c1c2sccc2n(Cc2nc(-c3ccc(C(F)(F)F)cc3)no2)c(=O)n1-c1ccc(F)cc1`, for which the RP-LC retention time was 1080 s. `O=C(CCc1c(-c2ccc(Br)cc2)nc2ccccn12)NCc1ccco1` showed an RP-LC retention time of 660 s.

In turn, `Cc1ccc(-c2ccc(N3CCCC(C(=O)NC4CC4)C3)nn2)cc1` (stereo unspecified) yielded an RP-LC retention time of 631 s. `O=C(c1cn(-c2cc(N3CCSCC3)ncn2)cn1)N1CCCCC1` showed an RP-LC retention time of 789 s. Then `CN1C(=O)CCS(=O)(=O)C1c1ccc(Cl)cc1` (stereo unspecified), with 759 s. Then `Cc1cc(F)cc2c(=O)c3c([nH]c12)CCN(CC(=O)Nc1cc(F)cc(F)c1)C3`, with 635 s; and `CCn1cc(S(=O)(=O)Nc2ccc(OC)cc2)c2cccnc21`, with 786 s. `O=C(CCc1ccc2c(c1)CNCCO2)NCC1CC1`: the RP-LC retention time was found to be 574 s.

For `O=C(Cn1c(=O)cc(-c2nc(C3CC3)no2)c2ccccc21)NCCc1ccc(Cl)cc1`, the RP-LC retention time turned out to be 1000 s. In the case of `CCc1ccc(S(=O)(=O)Nc2ccc(-c3cn4ccc(C)nc4n3)cc2)cc1`, the RP-LC retention time turned out to be 696 s. Turning to `CCc1ccccc1NC(=O)c1sc(C)nc1C`, the RP-LC retention time is 778 s.

Turning to `COC(=O)c1cccc(COC(=O)C2=CN(C)S(=O)(=O)N=C2C)c1`, the RP-LC retention time came out at 874 s. `O=C(NCCc1c[nH]c2ccc(Cl)cc12)c1ccccc1Cl` returned an RP-LC retention time of 873 s.

Turning to `O=C(Cn1cnc2c(sc3nc(-c4ccccc4)ccc32)c1=O)NCc1ccccc1`, the RP-LC retention time amounted to 953 s. Turning to `CCN(c1ccc(F)cc1)S(=O)(=O)c1cc2n(c1)CCCNC2=O`, the RP-LC retention time was determined as 721 s.

The compound `CCCOc1nccnc1N1CCC(N(C)C(=O)c2ccc(C)nc2)C1` (stereo unspecified) showed an RP-LC retention time of 657 s. `O=C(Nc1ccc2c(c1)OCCO2)N1CCCC(Cn2cnc3cccnc32)C1` (stereo unspecified) had an RP-LC retention time of 637 s. Then `Cc1nc(-c2nnn(-c3ccc(F)cc3)c2C)no1`, with 789 s; and `Cc1nn(-c2nc(-c3ccccc3)cs2)c(C)c1CC(=O)Nc1cccc(C(F)(F)F)c1`, with 1270 s. In the case of `N#CCn1nc2n(c1=O)CCN(S(=O)(=O)c1cccc3cccnc13)CC2`, the RP-LC retention time was 702 s. `O=C(c1cc(Cl)ccc1Cl)N(CCc1cccs1)C1CC1` yielded an RP-LC retention time of 1070 s. `Cc1ccc(-c2noc(-c3cccc(S(=O)(=O)Nc4cccnc4)c3)n2)cc1` returned an RP-LC retention time of 941 s. The compound `CCn1nccc1C(=O)Nc1c(-c2cccc(F)c2)nc2sc(N3CCCCC3)nn12` showed an RP-LC retention time of 964 s. With `CCOc1cc(-c2noc(-c3ncn4c3COC(c3ccc(OC)cc3)C4)n2)ccc1OC` (stereo unspecified), the RP-LC retention time was 992 s. On to `COc1ccc2c(c1)C1(CCN(C(=O)c3cccc(F)c3)C1)C(=O)N2C` (stereo unspecified), for which the RP-LC retention time came to 782 s.

`CC1CCCCN1CCCNC(=O)CN1C(=O)CSc2cccn2-c2ccccc21` (stereo unspecified) had an RP-LC retention time of 651 s. On to `CC1CCC(C(=O)Nc2ccc(-c3nnc4n3CCCC4)cc2)CC1` (stereo unspecified), for which the RP-LC retention time amounted to 734 s.

Compound `Cc1noc(-c2nn(C)c3c2CN(C(=O)NCc2ccccc2)CC3)n1` showed an RP-LC retention time of 761 s. Consider `Cc1nnc(-c2ccc3ccn(CC(=O)N4CCCCC4)c3c2)o1`, for which the RP-LC retention time is 748 s.

The compound `CCOc1ccc(N2C=C(C(=O)N3CCCC3)S(=O)(=O)c3ccc(Cl)cc32)cc1` had an RP-LC retention time of 930 s. Take `CCSCCOC(=O)C1=C(C)NC2=C(C(=O)C(C(=O)OC)C(C)C2)C1c1ccccc1OC` (stereo unspecified): the RP-LC retention time turned out to be 967 s. Take `CCN1CCN(c2c(S(=O)(=O)c3ccc(OC)cc3)cnc3ccc(OC)cc23)CC1`: the RP-LC retention time worked out at 640 s. For the compound `Cc1nnc(C(C)C)n1C1C[C@H]2CC[C@@H](C1)N2CC[C@H](NC(=O)C1CCC(F)(F)CC1)c1ccccc1` (stereo partly specified), the RP-LC retention time came to 666 s. `Cc1ccc(NC(=O)CSc2nnc3c4cc(-c5ccc(Cl)cc5)nn4ccn23)cc1F` came in with an RP-LC retention time of 1010 s. Compound `COCC1CN(C2CCC2)CC12CCN(C(=O)C1CCN(C(C)=O)CC1)CC2` (stereo unspecified) showed an RP-LC retention time of 561 s. As for `Cc1cc2c(=O)n(CC(=O)NCc3cccc(Cl)c3)c3cccnc3n2n1`, the RP-LC retention time is 727 s. The result for `Cc1oc(-c2[nH]ncc2C(=O)N2CCCCC2)cc1S(=O)(=O)Nc1cccc(F)c1` reads 710 s.

In turn, `CCc1nc(-c2cc(S(=O)(=O)N3CCC(C(=O)NC4CCCCCC4)CC3)c(C)s2)no1` showed an RP-LC retention time of 1070 s.

`COc1ccc(Cl)cc1NC(=O)NCCc1ccc(N(C)C)cc1` yielded an RP-LC retention time of 637 s.

Turning to `Cc1nn(CC(=O)N2CCCCCC2)c(=O)c2c(-n3cccc3)n(-c3ccc(Cl)cc3)nc12`, the RP-LC retention time worked out at 1090 s. Then `CCc1ccc(NC(=O)c2cc3sc(Cl)cc3n2C)cc1`, with 1210 s; and `O=C(Nc1ccc(N2CCOCC2)cc1)C1CCCN(c2ncc(-c3ccc(F)cc3)cn2)C1` (stereo unspecified), with 951 s.

The compound `CC(C)(C)NC(=O)NC1CCN(C(=O)c2ccccc2)C1` (stereo unspecified) displayed an RP-LC retention time of 683 s. The result for `Nc1ncc2c(n1)CC(c1ccco1)CC2=O` (stereo unspecified) reads 676 s.

As for `NP(=O)(Oc1c2occc2cc2ccc(=O)oc12)N(CCCl)CCCl` (stereo unspecified), the RP-LC retention time stood at 738 s. `CC(C)c1ccc(NC(=O)C2CCCN(c3ncnc4c3oc3ccccc34)C2)cc1` (stereo unspecified): the RP-LC retention time came out at 976 s. The result for `O=C(CC1CCN(C(=O)c2ccc3oc(-c4ccccc4)nc3c2)CC1)NCCN1CCOCC1` reads 630 s; that for `Cc1ccc(-n2nc3c(N4CCCC(C(=O)NCc5ccc(F)cc5)C4)nnc(C)c3c2C)cc1` (stereo unspecified), 761 s. Then `O=C(NCc1ccccc1F)C1CCN(C(=O)c2ncn3c2COC(c2ccccc2)C3)CC1` (stereo unspecified), with 747 s. Turning to `CN1C(=O)[C@H]2CN(Cc3ccccc3OC(F)(F)F)C[C@H]2C1=O`, the RP-LC retention time was found to be 691 s. Take `CCOCc1nc(C2CCCN(C(=O)NC3CCCC3)C2)no1` (stereo unspecified): the RP-LC retention time amounted to 766 s. Turning to `Fc1ccc(Cn2cccc2-c2nc(-c3cccnc3)no2)cc1`, the RP-LC retention time came out at 1100 s. Take `Cc1cccc(NC(=O)NCC(O)Cc2ccccc2)c1` (stereo unspecified): the RP-LC retention time stood at 734 s. `O=C1CCN(C(=O)c2ccsc2)CCCCCCN1`: the RP-LC retention time is 652 s. Then `CN(C)[C@@H]1CN(C(=O)COc2ccc(Cl)cc2)C[C@H]1CO`, with 598 s; and `Cc1ccc(Cl)cc1NC(=O)N1CCCC1c1c(C)noc1C` (stereo unspecified), with 853 s; and `O=C(Nc1cnc(N2CCCC2)nc1)c1cccs1`, with 667 s. Regarding `CC1(C)CCC=[N+]1[O-]`, the RP-LC retention time was found to be 487 s.

As to `O=C(C1CCC1)N1[C@H]2CC[C@@H]1c1cnc(-c3ccccc3)nc1C2`, the RP-LC retention time came to 876 s.

`CC(C)CC(=O)N1CC(F)(F)C[C@H]1c1nnc(-c2cnccn2)o1` returned an RP-LC retention time of 703 s. In the case of `Cc1cc(C)cc(S(=O)(=O)N2CCC(C(=O)NCc3csc(-c4cccs4)n3)CC2)c1`, the RP-LC retention time was determined as 967 s.

`Cc1ccc(-c2noc(CCN3CCN(C)CC3)n2)cc1`: the RP-LC retention time amounted to 630 s.

In turn, `COc1ccc(Nc2c(C(=O)N3CCC(C)CC3)cnc3nc(C)ccc23)cc1` yielded an RP-LC retention time of 638 s. Then `COC(=O)c1ccc(NC(=O)C(=O)NCC2CCN(S(C)(=O)=O)CC2)cc1`, with 828 s.

On to `Cc1ccc(CNC(=O)c2nc3cccnc3n(CC(C)C)c2=O)cc1`, for which the RP-LC retention time was determined as 1010 s. Turning to `O=C(Nc1cnc(N2CCCC2)nc1)c1cc(F)cc(F)c1`, the RP-LC retention time is 765 s. For the compound `CCOC(=O)c1cccc(N2C=C(C#N)S(=O)(=O)c3ccc(F)cc32)c1`, the RP-LC retention time came out at 939 s. Consider `CN(C)c1ccc(-c2noc(C3CC(=O)N(c4ccc(F)cc4)C3)n2)cc1` (stereo unspecified), for which the RP-LC retention time came out at 994 s. In turn, `C=CCN(CC=C)S(=O)(=O)c1ccc(C(=O)N2CCCc3ccccc32)cc1` yielded an RP-LC retention time of 985 s. On to `COc1ccc(-c2noc(C3CCCN3C(=O)Nc3cc(Cl)ccc3OC)n2)cc1` (stereo unspecified), for which the RP-LC retention time was determined as 1130 s. As to `CCOc1cccc(-c2noc(-c3nn(-c4cccc(OC)c4)ccc3=O)n2)c1`, the RP-LC retention time worked out at 968 s. In turn, `Cc1ccc(C)c(S(=O)(=O)N2CCC(F)(c3nc(CC(C)C)no3)CC2)c1` had an RP-LC retention time of 1270 s. Regarding `COc1ccc(C(=O)N2C[C@@H]3C[C@H](NC(=O)c4cccs4)[C@H]2C3)c(C)c1`, the RP-LC retention time was found to be 628 s.
